Source: US20260125382A1, “COMPOUNDS FOR INHIBITING OR DEGRADING CDK2 AND/OR CDK9 AND MEDICINAL USE THEREOF” (KOREA RESEARCH INSTITUTE OF CHEMICAL TECHNOLOGY, priority 2022, published 2026)

How the values were obtained:
CDK2 = molecular target: T1, CDK2 (Homo sapiens, UniProt P24941); test: CDK protein degradation activity (Western blotting), CDK2; assay type: cell-based; conditions: MDA-MB-231 cells, 16 hours, Western blot
T1 construct: endogenous in cells; host or cells: MDA-MB-231
Procedure, shortened: (§1)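 MDA-MB-231 cells were treated with compound at final concentrations of 100 nM, 1 μM and 10 μM, or DMSO vehicle, for 16 h. Lysates were resolved by SDS-PAGE and immunoblotted for CDK2, CDK9 and tubulin, with band intensities quantified densitometrically.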

CDK9 = molecular target: T2, CDK9 (Homo sapiens, UniProt P50750); test: CDK protein degradation activity (Western blotting), CDK9; assay type: cell-based; conditions: MDA-MB-231 cells, 16 hours, Western blot
T2 construct: endogenous in cells; host or cells: MDA-MB-231
Procedure, shortened: as §1

T2 sequence (P50750 whole entry): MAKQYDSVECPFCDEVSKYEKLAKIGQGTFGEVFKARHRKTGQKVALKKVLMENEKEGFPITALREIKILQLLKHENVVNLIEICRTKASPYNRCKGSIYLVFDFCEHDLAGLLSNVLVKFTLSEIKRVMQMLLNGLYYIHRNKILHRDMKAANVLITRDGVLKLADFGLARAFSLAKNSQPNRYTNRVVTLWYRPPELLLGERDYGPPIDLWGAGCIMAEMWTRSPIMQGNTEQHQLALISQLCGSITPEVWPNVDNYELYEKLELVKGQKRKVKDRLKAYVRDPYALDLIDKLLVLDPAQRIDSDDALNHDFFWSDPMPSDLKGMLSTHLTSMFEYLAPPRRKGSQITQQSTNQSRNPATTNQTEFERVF

Structure (SMILES)	Enzyme degradation CDK2 (% remaining) @ 0.1 μM (CDK2)	Enzyme degradation CDK2 (% remaining) @ 1 μM (CDK2)	Enzyme degradation CDK2 (% remaining) @ 10 μM (CDK2)	Enzyme degradation CDK9 (% remaining) @ 0.1 μM (CDK9)	Enzyme degradation CDK9 (% remaining) @ 1 μM (CDK9)	Enzyme degradation CDK9 (% remaining) @ 10 μM (CDK9)
Cc1cccc(C(=O)NC2CC(n3cnc4c(Nc5ccc(N6CCN(C7CC8(CCN(C(=O)COc9ccc([C@@H]%10CCC(=O)NC%10=O)cc9)CC8)C7)CC6)cc5)ncnc43)C2)n1 (stereo partly drawn) [Compound 435, N-((1s,3s)-3-(6-((4-(4-(7-(2-(4-(2,6-dioxopiperidin-3-yl)phenoxy)acetyl)-7-azaspiro[3.5]nonan-2-yl)piperazin-1-yl)phenyl)amino)-9H-purin-9-yl)cyclobutyl)-6-methylpicolinamide]	40/40/40%	40/40/40%	40/40/40%	10/10/10%	10/10/10%	10/10/10%
O=C1CC[C@@H](c2ccc(OCC(=O)N3CCC(CN4CCN(c5ccc(Nc6ncnc7c6ncn7[C@H]6C[C@@H](NC(=O)c7c(Cl)cccc7Cl)C6)cc5)CC4)CC3)cc2)C(=O)N1 [Compound 437, 2,6-dichloro-N-((1s,3s)-3-(6-((4-(4-((1-(2-(4-(2,6-dioxopiperidin-3-yl)phenoxy)acetyl)piperidin-4-yl)methyl)piperazin-1-yl)phenyl)amino)-9H-purin-9-yl)cyclobutyl)benzamide]	30%	40%	40%	10/10/10%	10/10/10%	10/10/10%
O=C1CC[C@@H](c2ccc(OCC(=O)N3CCC(CCN4CCN(c5ccc(Nc6ncnc7c6ncn7[C@H]6C[C@@H](NC(=O)c7cccc(C(F)(F)F)n7)C6)cc5)CC4)CC3)cc2)C(=O)N1 [Compound 438, N-((1s,3s)-3-(6-((4-(4-(2-(1-(2-(4-(2,6-dioxopiperidin-3-yl)phenoxy)acetyl)piperidin-4-yl)ethyl)piperazin-1-yl)phenyl)amino)-9H-purin-9-yl)cyclobutyl)-6-(trifluoromethyl)picolinamide]	40%	50%	50%	10/10/10%	10/10/10%	10/10/10%
O=C1CC[C@@H](c2ccc(OCC(=O)N3CCC(CN4CCN(c5ccc(Nc6ncnc7c6ncn7[C@H]6C[C@@H](NC(=O)c7cccc(Cl)n7)C6)cc5)CC4)CC3)cc2)C(=O)N1 [Compound 440, 6-chloro-N-((1s,3s)-3-(6-((4-(4-((1-(2-(4-(2,6-dioxopiperidin-3-yl)phenoxy)acetyl)piperidin-4-yl)methyl)piperazin-1-yl)phenyl)amino)-9H-purin-9-yl)cyclobutyl)picolinamide]	20/20/20%	20/20/20%	20/20/20%	10/10/10%	10/10/10%	10/10/10%
Cc1cccc(C(=O)NC2CC(n3cnc4c(Nc5ccc(N6CCN(CC7CCN(C(=O)COc8ccc([C@@H]9CCC(=O)NC9=O)cc8)CC7)CC6)cc5)ncnc43)C2)n1 (stereo partly drawn) [Compound 443, N-((1s,3s)-3-(6-((4-(4-((1-(2-(4-(2,6-dioxopiperidin-3-yl)phenoxy)acetyl)piperidin-4-yl)methyl)piperazin-1-yl)phenyl)amino)-9H-purin-9-yl)cyclobutyl)-6-methylpicolinamide]	20/20/20%	20/20/20%	20/20/20%	0/0/0%	0/0/0%	0/0/0%
Cc1cccc(C(=O)N[C@H]2C[C@@H](n3cnc4c(Nc5ccc(N6CCN(CCC7CCN(C(=O)COc8ccc([C@@H]9CCC(=O)NC9=O)cc8)CC7)CC6)cc5)ncnc43)C2)n1 [Compound 444, N-((1s,3s)-3-(6-((4-(4-(2-(1-(2-(4-(2,6-dioxopiperidin-3-yl)phenoxy)acetyl)piperidin-4-yl)ethyl)piperazin-1-yl)phenyl)amino)-9H-purin-9-yl)cyclobutyl)-6-methylpicolinamide]	30/30/30%	30/30/30%	30/30/30%	0/0/0%	0/0/0%	0/0/0%

Continued, values first:

Enzyme degradation CDK2 (% remaining) @ 0.1 μM (CDK2)	Enzyme degradation CDK2 (% remaining) @ 1 μM (CDK2)	Enzyme degradation CDK2 (% remaining) @ 10 μM (CDK2)	Enzyme degradation CDK9 (% remaining) @ 0.1 μM (CDK9)	Enzyme degradation CDK9 (% remaining) @ 1 μM (CDK9)	Enzyme degradation CDK9 (% remaining) @ 10 μM (CDK9)	Structure (SMILES)
50%	40%	40%	0/0/0%	0/0/0%	0/0/0%	O=C1CCC(N2C(=O)c3cccc(CCCCN4CCC(CN5CCN(c6ccc(Nc7ncnc8c7ncn8[C@H]7C[C@@H](NC(=O)c8cccc(F)n8)C7)cc6)CC5)CC4)c3C2=O)C(=O)N1 (stereo partly drawn) [Compound 432, N-((1s,3s)-3-(6-((4-(4-((1-(4-(2-(2,6-dioxopiperidin-3-yl)-1,3-dioxoisoindolin-4-yl)butyl)piperidin-4-yl)methyl)piperazin-1-yl)phenyl)amino)-9H-purin-9-yl)cyclobutyl)-6-fluoropicolinamide]
80%	90%	90%	20%	10%	10%	O=C1CC[C@@H](c2ccc(OCC(=O)N3CCC(CCN4CCN(c5ccc(Nc6ncnc7c6ncn7C6CC(NC(=O)Cc7ccccc7)C6)cc5)CC4)CC3)cc2)C(=O)N1 (stereo partly drawn) [Compound 433, N-((1s,3s)-3-(6-((4-(4-(2-(1-(2-(4-(2,6-dioxopiperidin-3-yl)phenoxy)acetyl)piperidin-4-yl)ethyl)piperazin-1-yl)phenyl)amino)-9H-purin-9-yl)cyclobutyl)-2-phenylacetamide]
50%	70%	80%	10/10/10%	10/10/10%	10/10/10%	O=C1CCC(c2ccc(OCC(=O)N3CCC(CCN4CCN(c5ccc(Nc6ncnc7c6ncn7[C@H]6C[C@@H](NC(=O)c7c(Cl)cccc7Cl)C6)cc5)CC4)CC3)cc2)C(=O)N1 (stereo partly drawn) [Compound 434, 2,6-dichloro-N-((1s,3s)-3-(6-((4-(4-(2-(1-(2-(4-(2,6-dioxopiperidin-3-yl)phenoxy)acetyl)piperidin-4-yl)ethyl)piperazin-1-yl)phenyl)amino)-9H-purin-9-yl)cyclobutyl)benzamide]
30/30/30%	30/30/30%	30/30/30%	10/10/10%	10/10/10%	10/10/10%	O=C1CC[C@@H](c2ccc(OCC(=O)N3CCC(CN4CCN(c5ccc(Nc6ncnc7c6ncn7C6CC(NC(=O)c7cccc(C(F)(F)F)n7)C6)cc5)CC4)CC3)cc2)C(=O)N1 (stereo partly drawn) [Compound 436, N-((1s,3s)-3-(6-((4-(4-((1-(2-(4-(2,6-dioxopiperidin-3-yl)phenoxy)acetyl)piperidin-4-yl)methyl)piperazin-1-yl)phenyl)amino)-9H-purin-9-yl)cyclobutyl)-6-(trifluoromethyl)picolinamide]
50/50/50%	50/50/50%	50/50/50%	10/10/10%	10/10/10%	10/10/10%	O=C1CC[C@@H](c2ccc(OCC(=O)N3CCC4(CC3)CC(N3CCN(c5ccc(Nc6ncnc7c6ncn7[C@H]6C[C@@H](NC(=O)c7cccc(C(F)(F)F)n7)C6)cc5)CC3)C4)cc2)C(=O)N1 [Compound 439, N-((1s,3s)-3-(6-((4-(4-(7-(2-(4-(2,6-dioxopiperidin-3-yl)phenoxy)acetyl)-7-azaspiro[3.5]nonan-2-yl)piperazin-1-yl)phenyl)amino)-9H-purin-9-yl)cyclobutyl)-6-(trifluoromethyl)picolinamide]
30%	30%	40%	10/10/10%	10/10/10%	10/10/10%	N#Cc1cccc(C(=O)N[C@H]2C[C@@H](n3cnc4c(Nc5ccc(N6CCN(CC7CCN(c8ccc9c(c8)CN(C8CCC(=O)NC8=O)C9=O)CC7)CC6)cc5)ncnc43)C2)n1 (stereo partly drawn) [Compound 441, 6-cyano-N-((1s,3s)-3-(6-((4-(4-((1-(2-(2,6-dioxopiperidin-3-yl)-1-oxoisoindolin-5-yl)piperidin-4-yl)methyl)piperazin-1-yl)phenyl)amino)-9H-purin-9-yl)cyclobutyl)picolinamide]
40/40/40%	40/40/40%	40/40/40%	0/0/0%	0/0/0%	0/0/0%	O=C1CC[C@@H](c2ccc(OCC(=O)N3CCC4(CC3)CC(N3CCN(c5ccc(Nc6ncnc7c6ncn7[C@H]6C[C@@H](NC(=O)c7c(Cl)cccc7Cl)C6)cc5)CC3)C4)cc2)C(=O)N1 [Compound 442, 2,6-dichloro-N-((1s,3s)-3-(6-((4-(4-(7-(2-(4-(2,6-dioxopiperidin-3-yl)phenoxy)acetyl)-7-azaspiro[3.5]nonan-2-yl)piperazin-1-yl)phenyl)amino)-9H-purin-9-yl)cyclobutyl)benzamide]
